Consider 1 substance from US12391972B2, “Capillary-based system for accelerated antimicrobial susceptibility testing” (Cornell University, priority 2019, dated 2025).

What all share (assay type): cell-based, Escherichia coli
Assay [1] relates to E. coli clinical strain 7426. Description: cAST platform antimicrobial susceptibility testing (resazurin, capillary format). As to the method: (§1) The disclosure includes use of steel capillary tubes of size 50 mm×1.59 mm×0.76 mm (L×O.D.×I.D.) to hold the samples. Alternatively, glass capillary tubes (Drummond Scientific) of similar size can also be used. However, in the case of glass, the ends of the tubes are coated with paint or a similar substance to prevent excess light from the LEDs leaking into the fiber-optic detector. During sample loading, 4 μL liquid culture droplets were individually pipetted onto a clean substrate and then loaded into the tubes via capillary action. The capillary tubes used as conduits were sterilized prior to loading through autoclaving. Following loading, tubes were inserted into the sample holder in a configuration that allows light from the LEDs to pass through the sample and into the fiber-optic detector. Since the volume capacity of the capillary tubes was higher than the sample volume of 4 μL, the tubes were loaded with the fluid-filled side near the light-source as this configuration was determined to yield higher signal-to-noise ratios. This approach to sample loading is encompassed by the disclosure. During AST, the cAST platform was placed inside a benchtop incubator (Corning) set to 37° C. in ambient air. A small portable humidifier was also placed inside the incubator (80-85% relative humidity) to minimize sample drying during incubation. Thus, in embodiments, a system of the disclosure may include a humidifying device or composition to act as […]. Every 30 min, spectral intensity measurements were automatically taken for each sample and data were transferred and stored on a computer for processing using OceanView (Ocean Optics).
(§2) The cAST platform was initially used to test five different quality control (QC) strains: Escherichia coli ATCC 25922, Enterobacter cloacae ATCC 13047, Acinetobacter baumannii ATCC BAA-747, Pseudomonas aeruginosa ATCC 27853, and Escherichia coli K12 ER2267 (kanamycin resistant). To prepare inocula for AST, strains were first streaked on Mueller-Hinton II agar plates (Becton, Dickinson and Company) and incubated overnight at 37° C. in ambient air. For the kanamycin resistant E. coli K12 strain, the agar was supplemented with kanamycin (MilliporeSigma) at a final concentration of 50 μg/mL. Liquid cultures were then prepared by inoculating single colonies into CAMHB, followed by overnight incubation at 37° C. in ambient air. […] Using a spectrophotometer (V-1200, VWR), the OD625nm absorbance corresponding to a 0.5 McFarland standard was verified to be in the range of 0.08-0.13^21. […] Resazurin is a redox indicator that is reduced by metabolically active cells into resorufin, leading to significant colorimetric and fluorescent changes in the culture media which can be measured to gauge bacterial growth^20. […]
(In general: Alamar Blue is a resazurin reagent that responds to reducing activity.)

Assay [2] relates to E. coli clinical strain 7704. The description is as above. The method, then: as §1, §2
The subject of assay [3] is E. coli clinical strain 7426. Description: clinical gradient diffusion (E-test, bioMérieux). Conditions: gradient diffusion overnight. The method, then:
(§3) Following testing of the QC strains, the cAST platform was used to test two E. coli clinical isolates. Following the same protocol used to test the QC strains, the clinical isolates were tested with ten two-fold dilution gentamicin concentrations spanning 0.5 μg/mL to 256 μg/mL. Testing was conducted blind and results were subsequently compared with clinical results generated using gradient diffusion (E-test, bioMérieux).

Assay [4] relates to E. coli clinical strain 7704. Kind of assay: clinical gradient diffusion (E-test, bioMérieux). Conditions: gradient diffusion overnight. As to the method:
as §3

Where [5] appears, read: cAST in categorical agreement with gradient diffusion.

Regarding gentamicin, the “predicted MIC” value in assay [1] (cAST at 6 h) is 128 µg/mL; in assay [2] (cAST at 6 h) it was 1 µg/mL. Also, the susceptibility category entry in assay [1] (setting [5]) is on record as “resistant (resistant (≥16 μg/mL))”; in assay [2] (setting [5]), “susceptible (susceptible (≤4 μg/mL))”. Further, the MIC in assay [3] is at least 256 µg/mL; in assay [4], 1.5 µg/mL.

Broadly, the MIC is the smallest concentration in the dilution series that meets the test's criterion for growth inhibition.
